We go through four compounds from article PMC6757289, “Design and Characterization of SGK3-PROTAC1, an Isoform Specific SGK3 Kinase PROTAC Degrader” (ACS Chemical Biology, 2019).

Where two headings read alike, the source gives them in different places.

Experiment in all cases: kinase profiling panel
Holding throughout (assay type): biochemical
Common to all, as to details: read-out: % Activity Remaining

The target of one assay is SYK (Homo sapiens, UniProt P43405). The source says: (§1) Protein kinase profiling against a Dundee panel of 140 protein kinases was undertaken at the International Centre for Protein Kinase Profiling. The result for each kinase was presented as a mean kinase activity of the reaction taken in triplicate relative to a control sample treated with DMSO. Assay conditions and abbreviations are available at http://www.kinase-screen.mrc.ac.uk.

A further assay has as its target TrkA (Homo sapiens, UniProt P04629).
Source text: as §1

Another assay has as its target T1, ASK1 (Homo sapiens, UniProt Q99683).
T1 sequence (Q99683 1-1374): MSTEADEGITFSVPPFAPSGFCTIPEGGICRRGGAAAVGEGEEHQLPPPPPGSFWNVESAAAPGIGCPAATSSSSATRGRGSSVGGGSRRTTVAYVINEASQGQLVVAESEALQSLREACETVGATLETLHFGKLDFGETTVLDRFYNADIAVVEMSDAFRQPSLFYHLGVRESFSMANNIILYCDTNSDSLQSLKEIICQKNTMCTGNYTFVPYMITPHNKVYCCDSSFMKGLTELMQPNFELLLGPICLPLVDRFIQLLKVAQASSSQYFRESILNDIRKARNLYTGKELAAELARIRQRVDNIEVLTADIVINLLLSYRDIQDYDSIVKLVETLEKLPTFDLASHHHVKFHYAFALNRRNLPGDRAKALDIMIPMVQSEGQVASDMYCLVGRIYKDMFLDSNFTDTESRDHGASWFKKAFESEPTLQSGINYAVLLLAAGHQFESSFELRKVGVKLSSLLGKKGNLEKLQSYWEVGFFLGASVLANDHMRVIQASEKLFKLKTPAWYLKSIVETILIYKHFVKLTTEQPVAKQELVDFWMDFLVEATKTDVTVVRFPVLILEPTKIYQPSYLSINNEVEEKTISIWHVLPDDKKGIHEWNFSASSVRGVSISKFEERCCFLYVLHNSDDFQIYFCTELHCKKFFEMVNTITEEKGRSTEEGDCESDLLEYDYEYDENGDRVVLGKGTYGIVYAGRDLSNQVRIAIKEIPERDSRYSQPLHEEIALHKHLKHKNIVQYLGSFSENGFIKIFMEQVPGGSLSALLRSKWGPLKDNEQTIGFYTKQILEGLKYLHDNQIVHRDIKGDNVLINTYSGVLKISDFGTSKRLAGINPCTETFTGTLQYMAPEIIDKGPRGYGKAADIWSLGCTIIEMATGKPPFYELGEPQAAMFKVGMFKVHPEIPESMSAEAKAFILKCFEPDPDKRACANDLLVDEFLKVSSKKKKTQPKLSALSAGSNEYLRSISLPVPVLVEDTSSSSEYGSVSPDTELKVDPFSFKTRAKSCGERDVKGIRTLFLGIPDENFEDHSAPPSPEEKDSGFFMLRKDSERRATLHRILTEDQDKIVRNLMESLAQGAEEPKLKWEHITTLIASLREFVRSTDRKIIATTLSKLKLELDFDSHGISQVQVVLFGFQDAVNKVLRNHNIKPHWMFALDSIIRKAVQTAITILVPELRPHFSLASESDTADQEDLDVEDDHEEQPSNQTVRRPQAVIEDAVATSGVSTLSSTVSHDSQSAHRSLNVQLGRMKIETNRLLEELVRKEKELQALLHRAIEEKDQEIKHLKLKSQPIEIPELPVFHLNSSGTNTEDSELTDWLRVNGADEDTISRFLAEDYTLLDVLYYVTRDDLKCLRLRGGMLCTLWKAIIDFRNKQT
Source text: as §1

The target in another assay is FGF-R1 (Homo sapiens, UniProt P11362).
Chain of FGF-R1 (P11362 22-822): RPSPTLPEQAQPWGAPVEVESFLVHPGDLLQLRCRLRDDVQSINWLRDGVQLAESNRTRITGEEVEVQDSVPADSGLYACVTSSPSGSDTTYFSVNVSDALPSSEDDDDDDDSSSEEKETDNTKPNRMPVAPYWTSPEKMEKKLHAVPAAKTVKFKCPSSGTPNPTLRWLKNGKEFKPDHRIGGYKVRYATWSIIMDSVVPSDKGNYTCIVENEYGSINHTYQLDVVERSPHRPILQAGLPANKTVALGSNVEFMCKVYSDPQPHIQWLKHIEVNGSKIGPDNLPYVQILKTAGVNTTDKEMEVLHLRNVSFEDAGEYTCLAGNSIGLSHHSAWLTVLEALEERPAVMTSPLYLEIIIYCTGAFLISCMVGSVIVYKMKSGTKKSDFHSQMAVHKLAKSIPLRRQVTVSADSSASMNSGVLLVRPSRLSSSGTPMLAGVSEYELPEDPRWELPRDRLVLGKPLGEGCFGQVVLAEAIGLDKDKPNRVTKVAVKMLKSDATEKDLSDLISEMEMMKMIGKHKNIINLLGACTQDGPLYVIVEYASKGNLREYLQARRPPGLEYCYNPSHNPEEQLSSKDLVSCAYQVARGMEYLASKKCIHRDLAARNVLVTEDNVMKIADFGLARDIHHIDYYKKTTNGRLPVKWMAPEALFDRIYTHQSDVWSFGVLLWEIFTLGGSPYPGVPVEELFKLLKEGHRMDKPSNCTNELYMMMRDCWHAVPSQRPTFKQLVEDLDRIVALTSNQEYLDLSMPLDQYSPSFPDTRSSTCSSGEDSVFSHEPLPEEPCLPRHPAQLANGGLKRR
Source text: as §1

The target of another assay is MNK1 (Homo sapiens, UniProt Q9BUB5).
Chain of MNK1 (Q9BUB5 whole entry): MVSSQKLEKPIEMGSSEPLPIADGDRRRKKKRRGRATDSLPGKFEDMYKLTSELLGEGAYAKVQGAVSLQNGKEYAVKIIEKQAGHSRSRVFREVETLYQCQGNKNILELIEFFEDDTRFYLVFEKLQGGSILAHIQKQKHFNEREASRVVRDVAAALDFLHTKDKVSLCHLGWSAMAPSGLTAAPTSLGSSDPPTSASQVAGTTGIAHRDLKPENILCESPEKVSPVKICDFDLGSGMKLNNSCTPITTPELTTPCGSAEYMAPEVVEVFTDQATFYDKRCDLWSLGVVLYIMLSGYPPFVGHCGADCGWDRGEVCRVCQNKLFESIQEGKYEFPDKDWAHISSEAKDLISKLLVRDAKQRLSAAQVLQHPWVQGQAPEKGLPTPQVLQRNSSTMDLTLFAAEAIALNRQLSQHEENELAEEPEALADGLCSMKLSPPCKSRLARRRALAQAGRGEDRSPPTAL
Source text: as §1

The target of another assay is T2, PKC zeta (Homo sapiens, UniProt Q05513).
T2 sequence (Q05513 1-592): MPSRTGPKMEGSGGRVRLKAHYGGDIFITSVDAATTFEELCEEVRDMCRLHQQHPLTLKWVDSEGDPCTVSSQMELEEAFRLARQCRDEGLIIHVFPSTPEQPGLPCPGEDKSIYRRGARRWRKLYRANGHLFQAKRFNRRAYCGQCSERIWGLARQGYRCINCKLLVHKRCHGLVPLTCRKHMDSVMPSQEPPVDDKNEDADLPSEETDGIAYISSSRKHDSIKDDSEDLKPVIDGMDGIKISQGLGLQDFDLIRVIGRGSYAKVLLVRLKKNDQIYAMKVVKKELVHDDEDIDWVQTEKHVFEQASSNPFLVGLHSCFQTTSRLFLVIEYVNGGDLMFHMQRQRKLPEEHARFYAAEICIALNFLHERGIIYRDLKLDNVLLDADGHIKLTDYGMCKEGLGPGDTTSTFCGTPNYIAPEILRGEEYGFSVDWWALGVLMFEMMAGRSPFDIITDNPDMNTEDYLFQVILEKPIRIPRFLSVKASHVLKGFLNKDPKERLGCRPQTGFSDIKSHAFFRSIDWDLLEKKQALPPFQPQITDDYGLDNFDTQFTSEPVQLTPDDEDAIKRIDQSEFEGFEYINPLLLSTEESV
Source text: as §1

Chain of TrkA (P04629 33-796): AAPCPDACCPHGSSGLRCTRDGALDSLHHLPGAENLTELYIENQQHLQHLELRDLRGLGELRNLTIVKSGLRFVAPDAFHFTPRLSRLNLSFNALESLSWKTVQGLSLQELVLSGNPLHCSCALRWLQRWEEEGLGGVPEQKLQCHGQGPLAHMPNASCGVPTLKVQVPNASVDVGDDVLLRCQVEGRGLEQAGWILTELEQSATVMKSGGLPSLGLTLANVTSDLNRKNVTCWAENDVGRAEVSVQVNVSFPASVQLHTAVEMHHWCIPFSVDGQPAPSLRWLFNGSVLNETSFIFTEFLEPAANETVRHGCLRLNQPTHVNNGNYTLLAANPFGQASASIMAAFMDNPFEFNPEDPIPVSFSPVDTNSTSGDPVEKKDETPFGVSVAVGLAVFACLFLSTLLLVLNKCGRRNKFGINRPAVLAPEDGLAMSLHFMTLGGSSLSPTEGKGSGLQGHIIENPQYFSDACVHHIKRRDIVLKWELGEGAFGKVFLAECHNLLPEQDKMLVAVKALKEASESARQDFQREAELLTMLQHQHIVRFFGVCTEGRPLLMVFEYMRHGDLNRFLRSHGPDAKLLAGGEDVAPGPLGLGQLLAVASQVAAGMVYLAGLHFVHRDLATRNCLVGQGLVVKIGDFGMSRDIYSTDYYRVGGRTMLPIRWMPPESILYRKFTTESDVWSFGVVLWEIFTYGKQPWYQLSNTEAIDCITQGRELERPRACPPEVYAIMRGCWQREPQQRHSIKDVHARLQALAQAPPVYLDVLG

Consider `COc1ccc(Cl)c(S(=O)(=O)Nc2ccc(-c3nc(OC[C@H]4CNCCO4)c4c(C)n[nH]c4n3)cc2)c1` [290-R, reference compound], for which the remaining activity at 1 µM at SYK was found to be 88%; at TrkA, 104%; on ASK1 it was 104%; on FGF-R1, 104%; at MNK1, 87%; at PKC zeta it was 110%.
Turning to `Cc1ccc(F)c(S(=O)(=O)Nc2ccc(-c3nc(OC[C@H]4CNCCO4)c4cn[nH]c4n3)cc2)c1` [308-R, reference compound], the remaining activity at 1 µM came to 100% at SYK; 71% on TrkA; 87% on ASK1; 115% at FGF-R1; 77% at MNK1; 72% on PKC zeta.
Consider `Cc1ccc(F)c(S(=O)(=O)Nc2ccc(-c3nc(OC[C@H]4CN(CCCCCCOCCOCCOCC(=O)N[C@H](C(=O)N5C[C@H](O)C[C@H]5C(=O)NCc5ccc(-c6scnc6C)cc5)C(C)(C)C)CCO4)c4cn[nH]c4n3)cc2)c1` [SGK3-PROTAC1], for which the remaining activity at 1 µM turned out to be 116% at SYK (1 µM); 112% on TrkA (1 µM); 113% at ASK1 (1 µM); 108% at FGF-R1 (1 µM); 108% on MNK1 (1 µM); 96% on PKC zeta (1 µM).
For the compound `Cc1ccc(F)c(S(=O)(=O)Nc2ccc(-c3nc(OC[C@H]4CN(CCCCCCOCCOCCOCC(=O)N[C@H](C(=O)N5C[C@@H](O)C[C@H]5C(=O)NCc5ccc(-c6scnc6C)cc5)C(C)(C)C)CCO4)c4cn[nH]c4n3)cc2)c1` [cisSGK3-PROTAC1], the remaining activity at 1 µM at SYK (1 µM) was determined as 103%; on TrkA (1 µM), 102%; on ASK1 (1 µM), 102%; at FGF-R1 (1 µM), 106%; at MNK1 (1 µM), 103%; on PKC zeta (1 µM), 110%.
